# Non-standard residues stand in square brackets, D forms with d. Residues, ends and D or L forms follow the SMILES beside them. *: point of attachment. X5 = O=C(O)c1cc(NC(=S)*)ccc1-c1c2ccc(=O)cc-2oc2cc(O)ccc12; Benzoyl(2,3-Cl2) = O=C(c1cccc(Cl)c1Cl)*; Cyclohexanecarbonyl = O=C(C1CCCCC1)*; Cyclopentanecarbonyl = O=C(C1CCCC1)*; X7 = O=C(c1cc(F)c(F)c(F)c1F)*; Tle = CC(C)(C)[C@H](N)C(=O)O; X4 = O=C(c1ccc(Br)c(Cl)c1)*; X6 = Cc1ccc(C(=O)*)c(F)c1F; AEEA = NCCOCCOCC(=O)O; βAla = NCCC(=O)O; For = O=C*
# Assay: Binding affinity to GST-tagged Calcineurin (unknown origin) incubated for 1 hr by fluorescence polarization assay
# Design: species or system Homo sapiens
row,SMILES,Kd [nM]
1,CC[C@H](C)[C@H](NC(=O)[C@@H](NC(=O)c1cccc(Cl)c1Cl)C(C)(C)C)C(=O)N[C@H](C(=O)N[C@H](C(=O)N[C@H](C(=O)N[C@@H](CCC(N)=O)C(=O)N[C@@H](Cc1c[nH]cn1)C(=O)N[C@H](CC(C)C)C(=O)N[C@@H](Cc1c[nH]cn1)C(=O)NCCC(=O)N[C@@H](CCCCNC(=S)Nc1ccc(-c2c3ccc(=O)cc-3oc3cc(O)ccc23)c(C(=O)O)c1)C(N)=O)[C@@H](C)O)[C@@H](C)CC)C(C)(C)C,4.7
2,CC[C@H](C)[C@H](NC(=O)[C@@H](NC(C)=O)C(C)(C)C)C(=O)N[C@H](C(=O)N[C@H](C(=O)N[C@H](C(=O)NCC(=O)N1CCC[C@H]1C(=O)N[C@@H](Cc1c[nH]cn1)C(=O)N[C@@H](CCC(=O)O)C(=O)N[C@@H](CCC(=O)O)C(=O)N[C@@H](Cc1ccc(O)cc1)C(=O)N[C@@H](CCCCNC(=S)Nc1ccc(-c2c3ccc(=O)cc-3oc3cc(O)ccc23)c(C(=O)O)c1)C(N)=O)[C@@H](C)O)[C@@H](C)CC)C(C)(C)C (Ac-[Tle]I[Tle]ITGPHEEYK(X5)-NH2),> 5400
3,CC[C@H](C)[C@H](NC(=O)[C@@H](NC(=O)c1cccc(Cl)c1Cl)C(C)(C)C)C(=O)N[C@H](C(=O)N[C@H](C(=O)N[C@H](C(=O)N[C@@H](CC(=O)O)C(=O)N[C@@H](CCC(N)=O)C(=O)N[C@@H](Cc1ccc(O)cc1)C(=O)N[C@H](CCCCN)C(=O)NCCC(=O)N[C@@H](CCCCNC(=S)Nc1ccc(-c2c3ccc(=O)cc-3oc3cc(O)ccc23)c(C(=O)O)c1)C(N)=O)[C@@H](C)O)[C@@H](C)CC)C(C)(C)C,22
4,CC[C@H](C)[C@H](NC(=O)[C@@H](NC(=O)c1cc(F)c(F)c(F)c1F)C(C)(C)C)C(=O)N[C@H](C(=O)N[C@H](C(=O)N[C@H](C(=O)NCC(=O)N1CCC[C@H]1C(=O)N[C@@H](Cc1c[nH]cn1)C(=O)N[C@@H](CCC(=O)O)C(=O)N[C@@H](CCC(=O)O)C(=O)N[C@@H](Cc1ccc(O)cc1)C(=O)N[C@@H](CCCCNC(=S)Nc1ccc(-c2c3ccc(=O)cc-3oc3cc(O)ccc23)c(C(=O)O)c1)C(N)=O)[C@@H](C)O)[C@@H](C)CC)C(C)(C)C (X7-[Tle]I[Tle]ITGPHEEYK(X5)-NH2),32
5,CC[C@H](C)[C@H](NC(=O)[C@@H](NC=O)C(C)(C)C)C(=O)N[C@H](C(=O)N[C@H](C(=O)N[C@H](C(=O)NCC(=O)N1CCC[C@H]1C(=O)N[C@@H](Cc1c[nH]cn1)C(=O)N[C@@H](CCC(=O)O)C(=O)N[C@@H](CCC(=O)O)C(=O)N[C@@H](Cc1ccc(O)cc1)C(=O)N[C@@H](CCCCNC(=S)Nc1ccc(-c2c3ccc(=O)cc-3oc3cc(O)ccc23)c(C(=O)O)c1)C(N)=O)[C@@H](C)O)[C@@H](C)CC)C(C)(C)C (For-[Tle]I[Tle]ITGPHEEYK(X5)-NH2),> 5800
6,CC[C@H](C)[C@H](NC(=O)[C@@H](NC(=O)c1ccc(C)c(F)c1F)C(C)(C)C)C(=O)N[C@H](C(=O)N[C@H](C(=O)N[C@H](C(=O)NCC(=O)N1CCC[C@H]1C(=O)N[C@@H](Cc1c[nH]cn1)C(=O)N[C@@H](CCC(=O)O)C(=O)N[C@@H](CCC(=O)O)C(=O)N[C@@H](Cc1ccc(O)cc1)C(=O)N[C@@H](CCCCNC(=S)Nc1ccc(-c2c3ccc(=O)cc-3oc3cc(O)ccc23)c(C(=O)O)c1)C(N)=O)[C@@H](C)O)[C@@H](C)CC)C(C)(C)C (X6-[Tle]I[Tle]ITGPHEEYK(X5)-NH2),74
7,CC[C@H](C)[C@H](NC(=O)[C@@H](NC(=O)c1ccc(Br)c(Cl)c1)C(C)(C)C)C(=O)N[C@H](C(=O)N[C@H](C(=O)N[C@H](C(=O)NCC(=O)N1CCC[C@H]1C(=O)N[C@@H](Cc1c[nH]cn1)C(=O)N[C@@H](CCC(=O)O)C(=O)N[C@@H](CCC(=O)O)C(=O)N[C@@H](Cc1ccc(O)cc1)C(=O)N[C@@H](CCCCNC(=S)Nc1ccc(-c2c3ccc(=O)cc-3oc3cc(O)ccc23)c(C(=O)O)c1)C(N)=O)[C@@H](C)O)[C@@H](C)CC)C(C)(C)C (X4-[Tle]I[Tle]ITGPHEEYK(X5)-NH2),189
8,"CC[C@H](C)[C@H](NC(=O)[C@@H](NC(=O)c1cccc(Cl)c1Cl)C(C)(C)C)C(=O)N[C@H](C(=O)N[C@H](C(=O)N[C@H](C(=O)NCCOCCOCC(=O)N[C@@H](CCCCNC(=S)Nc1ccc(-c2c3ccc(=O)cc-3oc3cc(O)ccc23)c(C(=O)O)c1)C(N)=O)[C@@H](C)O)[C@@H](C)CC)C(C)(C)C ({Benzoyl(2,3-Cl2)}-[Tle]I[Tle]IT[AEEA]K(X5)-NH2)",700
9,CC[C@H](C)[C@H](NC(=O)[C@@H](NC(=O)CNC(=O)[C@H](Cc1c[nH]cn1)NC(=O)[C@@H]1CCCN1C(=O)CNC(C)=O)C(C)(C)C)C(=O)N[C@H](C(=O)N[C@H](C(=O)N[C@H](C(=O)NCC(=O)N1CCC[C@H]1C(=O)N[C@@H](Cc1c[nH]cn1)C(=O)N[C@@H](CCC(=O)O)C(=O)N[C@@H](CCC(=O)O)C(=O)N[C@@H](Cc1ccc(O)cc1)C(=O)N[C@@H](CCCCNC(=S)Nc1ccc(-c2c3ccc(=O)cc-3oc3cc(O)ccc23)c(C(=O)O)c1)C(N)=O)[C@@H](C)O)[C@@H](C)CC)C(C)(C)C (Ac-GPHG[Tle]I[Tle]ITGPHEEYK(X5)-NH2),92
10,CC[C@H](C)[C@H](NC(=O)[C@@H](NC(=O)c1cccc(Cl)c1Cl)C(C)(C)C)C(=O)N[C@H](C(=O)N[C@H](C(=O)N[C@H](C(=O)N[C@@H](Cc1ccc(O)cc1)C(=O)N[C@H](CCC(=O)O)C(=O)N[C@@H](Cc1ccc(F)cc1)C(=O)N[C@@H](Cc1c[nH]cn1)C(=O)NCCC(=O)N[C@@H](CCCCNC(=S)Nc1ccc(-c2c3ccc(=O)cc-3oc3cc(O)ccc23)c(C(=O)O)c1)C(N)=O)[C@@H](C)O)[C@@H](C)CC)C(C)(C)C,12
11,"CC[C@H](C)[C@H](NC(=O)[C@@H](NC(=O)c1cccc(Cl)c1Cl)C(C)(C)C)C(=O)N[C@H](C(=O)N[C@H](C(=O)N[C@H](C(=O)N[C@@H](CC(=O)O)C(=O)N[C@@H](CCC(N)=O)C(=O)N[C@@H](Cc1ccc(O)cc1)C(=O)N[C@@H](CCCNC(=N)N)C(=O)NCCC(=O)N[C@@H](CCCCNC(=S)Nc1ccc(-c2c3ccc(=O)cc-3oc3cc(O)ccc23)c(C(=O)O)c1)C(N)=O)[C@@H](C)O)[C@@H](C)CC)C(C)(C)C ({Benzoyl(2,3-Cl2)}-[Tle]I[Tle]ITDQYR[βAla]K(X5)-NH2)",64
12,CC[C@H](C)[C@H](NC(=O)[C@@H](NC(=O)C1CCCCC1)C(C)(C)C)C(=O)N[C@H](C(=O)N[C@H](C(=O)N[C@H](C(=O)NCC(=O)N1CCC[C@H]1C(=O)N[C@@H](Cc1c[nH]cn1)C(=O)N[C@@H](CCC(=O)O)C(=O)N[C@@H](CCC(=O)O)C(=O)N[C@@H](Cc1ccc(O)cc1)C(=O)N[C@@H](CCCCNC(=S)Nc1ccc(-c2c3ccc(=O)cc-3oc3cc(O)ccc23)c(C(=O)O)c1)C(N)=O)[C@@H](C)O)[C@@H](C)CC)C(C)(C)C (Cyclohexanecarbonyl-[Tle]I[Tle]ITGPHEEYK(X5)-NH2),207
13,CC[C@H](C)[C@H](NC(=O)[C@@H](NC(=O)C1CCCC1)C(C)(C)C)C(=O)N[C@H](C(=O)N[C@H](C(=O)N[C@H](C(=O)NCC(=O)N1CCC[C@H]1C(=O)N[C@@H](Cc1c[nH]cn1)C(=O)N[C@@H](CCC(=O)O)C(=O)N[C@@H](CCC(=O)O)C(=O)N[C@@H](Cc1ccc(O)cc1)C(=O)N[C@@H](CCCCNC(=S)Nc1ccc(-c2c3ccc(=O)cc-3oc3cc(O)ccc23)c(C(=O)O)c1)C(N)=O)[C@@H](C)O)[C@@H](C)CC)C(C)(C)C (Cyclopentanecarbonyl-[Tle]I[Tle]ITGPHEEYK(X5)-NH2),357

# Source: ChEMBL document CHEMBL4699579, “A Peptidyl Inhibitor that Blocks Calcineurin-NFAT Interaction and Prevents Acute Lung Injury” (J Med Chem, 2020)
